Read-outs that look alike come from different tables or passages of the source. [ ]: non-standard residue; d: D form. Dap = NC[C@H](N)C(=O)O
How the values were obtained:
MASP-2 [1] = assay: recombinant catalytic fragment of human MASP-2; conditions: up to 1 h
trypsin = conditions: fold more potent than tested SFMI2 variants; cited from earlier work
MASP-2 [2] = conditions: cited from earlier work
MASP-1 = conditions: cited from earlier work

For Ac-GY[Dap]SRSYPPVCIPD-NH2, which cleaved bond (MASP-2 [1]) is on record?
Its cleaved bond is “Arg5-Ser6, 1 h”.

Which cleaved bond (MASP-2 [1]) does the source give for “HELM PEPTIDE1{[ac].G.Y.C.S.R.S.Y.P.P.V.C.I.P.D.[am]}$PEPTIDE1,PEPTIDE1,4:R3-12:R3$$$V2.0 (SMILES CC[C@H](C)[C@H](NC(=O)[C@@H]1CSSC[C@H](NC(=O)[C@H](Cc2ccc(O)cc2)NC(=O)CNC(C)=O)C(=O)N[C@@H](CO)C(=O)N[C@@H](CCCNC(=N)N)C(=O)N[C@@H](CO)C(=O)N[C@@H](Cc2ccc(O)cc2)C(=O)N2CCC[C@H]2C(=O)N2CCC[C@H]2C(=O)N[C@@H](C(C)C)C(=O)N1)C(=O)N1CCC[C@H]1C(=O)N[C@@H](CC(=O)O)C(N)=O)” here?
The cleaved bond was “Arg5-Ser6, 1 h”.

Which results are given for “SFTI: 14-amino acid sunflower trypsin inhibitor, smallest natural canonical trypsin inhibitor, cyclic”?
potency on trypsin relative to SFMI2 variants (trypsin): about 1000 fold; MASP-2 inhibition (MASP-2 [2]): does not inhibit the MASPs; MASP-2 inhibition (MASP-2 [2]; listed as wild-type SFTI): does not inhibit MASP-2 at all; MASP-1 inhibition (MASP-1): does not inhibit the MASPs

Source: article PMC9016712 (ACS Chemical Biology, 2022)
